One test deals with T1, full-length human PHD1 (Homo sapiens, UniProt Q96KS0).
T1 construct: FLAG (N); purchased Active Motif 81064; host or cells: baculovirus expression system
In words: TR-FRET assay, enzymatic IC50 against PHD1. Note: 15 nM PHD1. The class given is biochemical. From the text: PHD1 was expressed in a baculovirus expression system as the full-length protein (NCBI accession number NP_542770.2) with an N-terminal FLAG tag (molecular weight 44.9 kDa).

In the next test the target is full-length human PHD2 (Homo sapiens, UniProt Q9GZT9). In words: TR-FRET assay, enzymatic IC50 against PHD2.
The next test has as its target T2, full-length human PHD3 (Homo sapiens, UniProt Q9H6Z9).
T2 construct: 6-His (N); purchased Active Motif 81033; host or cells: E. coli
In words: TR-FRET assay, enzymatic IC50 against PHD3. Note: 35 nM PHD3. The class given is biochemical. From the text: Recombinant human PHD3 protein (molecular weight 31.1 kDa) was purchased from Active Motif (Carlsbad, Calif., USA). It was expressed in E. coli as the full-length protein (NCBI accession number NP_071356.1) with an N-terminal 6-His tag (catalog #81033, Lot #24417001).
On the technique in general: In TR-FRET formats the signal depends on donor and acceptor labels being close together.

SMILES strings stand for the structures.

Usually IC50 stands for the midpoint of a concentration-inhibition curve.

full-length human PHD2, sequence (Q9GZT9 whole entry): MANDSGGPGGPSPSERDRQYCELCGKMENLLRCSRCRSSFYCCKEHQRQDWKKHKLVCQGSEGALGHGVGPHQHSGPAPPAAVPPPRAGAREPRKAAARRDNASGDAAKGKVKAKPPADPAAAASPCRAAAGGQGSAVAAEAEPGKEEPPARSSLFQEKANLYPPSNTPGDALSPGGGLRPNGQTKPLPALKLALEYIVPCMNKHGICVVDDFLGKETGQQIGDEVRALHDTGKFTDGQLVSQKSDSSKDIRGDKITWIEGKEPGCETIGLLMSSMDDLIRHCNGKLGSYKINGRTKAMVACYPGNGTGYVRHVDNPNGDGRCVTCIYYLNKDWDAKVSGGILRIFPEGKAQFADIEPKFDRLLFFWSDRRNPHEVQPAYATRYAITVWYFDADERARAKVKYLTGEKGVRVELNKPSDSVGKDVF
T1 sequence (Q96KS0 whole entry): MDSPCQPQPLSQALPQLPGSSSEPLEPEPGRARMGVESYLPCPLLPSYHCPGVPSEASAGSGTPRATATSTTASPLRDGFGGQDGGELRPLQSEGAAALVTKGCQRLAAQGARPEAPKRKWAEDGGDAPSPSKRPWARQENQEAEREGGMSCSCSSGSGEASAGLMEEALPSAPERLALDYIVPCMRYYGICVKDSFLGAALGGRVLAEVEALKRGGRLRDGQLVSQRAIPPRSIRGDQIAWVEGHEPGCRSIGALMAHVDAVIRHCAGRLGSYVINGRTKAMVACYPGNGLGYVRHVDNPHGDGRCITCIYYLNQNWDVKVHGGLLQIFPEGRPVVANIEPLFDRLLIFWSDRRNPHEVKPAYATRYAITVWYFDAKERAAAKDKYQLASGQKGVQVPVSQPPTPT
T2 sequence (Q9H6Z9 whole entry): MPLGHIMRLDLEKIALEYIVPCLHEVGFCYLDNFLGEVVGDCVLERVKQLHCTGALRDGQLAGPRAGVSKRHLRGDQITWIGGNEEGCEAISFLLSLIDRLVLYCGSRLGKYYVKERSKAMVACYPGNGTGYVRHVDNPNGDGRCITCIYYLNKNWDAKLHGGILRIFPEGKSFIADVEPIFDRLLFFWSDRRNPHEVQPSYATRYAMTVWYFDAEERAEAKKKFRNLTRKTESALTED
From the text for full-length human PHD2: Time-resolved fluorescence resonance energy transfer (TR-FRET) assay was utilized to determine the enzymatic half maximal inhibitory concentration (IC50) value of PHD inhibitors against the full-length human prolyl-4-hydroxylase domain (PHD) enzymes, PHD1, PHD2, and PHD3. The TR-FRET assay was developed based on the specific binding of hydroxylated HIF-1α peptide with the complex formed by VHL, EloB and EloC (VBC), to generate a fluorescent signal. Terbium (Tb)-Donor (monoclonal antibody anti-6His-Tb-cryptate Gold) and D2-acceptor (streptavidin [SA]-D2) of TR-FRET are linked to the VBC complex and to HIF-1α peptide, respectively. The VBC complex binds specifically to the HIF-1α peptide when it is hydroxylated, allowing energy transfer from TR-FRET donor to acceptor (FIG. 1). […] The plates were incubated for 30 minutes at room temperature without rotation. […] TR-FRET assays were performed in triplicate at each concentration of compound and the assays were repeated independently three times.

As for `Cc1nn(-c2ccc(S(C)(=O)=NC#N)cn2)c(O)c1-c1ccc(C#N)cc1` (stereo not drawn) [Compound 58, N-((6-(4-(4-cyanophenyl)-5-hydroxy-3-methyl-1H-pyrazol-1-yl)pyridin-3-yl)(methyl)(oxo)-λ^6-sulfaneylidene)cyanamide], the figures for the IC50 against full-length human PHD1, at full-length human PHD2 and against full-length human PHD3 were under 0.1 µM, under 0.1 µM and 0.1 to 1 µM, respectively.
